In patent US12109303B2, “Orally dissolving antimicrobial film compositions and methods of their use” (ISHA Therapeutics LLC, priority 2022, dated 2024):
≈ marks a conversion by molar mass, not a printed value. Read-outs that look alike come from different tables or passages of the source.

Legend:
[1] = Solubility in MiliQ water, quantified by HPLC; type: physicochemical; conditions: thermodynamic from solid, 0.5 mL MiliQ water, room temperature, 6 hours shaking, read-out: Solubility: average concentration of amphotericin B
[2] = system: Candida albicans; assay: Growth inhibition assay with resazurin colorimetric readout (MIC48h); type: cell-based; conditions: RPMI 1640, 30° C., 48±2 hours, unmodified drug in DMSO, film in aqueous media
Source text: (§1) Tis Example provides a description of antifungal efficacy testing wherein minimum inhibitor concentration (MIC) of the active pharmaceutical ingredient amphotericin B in the orally dissolvable films disclosed herein compared to that of unmodified amphotericin B. The test organism utilized in this experiment was Candida albicans.
Three to five colonies of a single Candida albicans strain were selected from stock YPD agar (agar comprising yeast extract, peptone, and dextrose; also referred to as YEPD agar) plates and suspended in Roswell Park Memorial Institute (RPMI) 1640 medium. The process was repeated to form a number of suspensions of Candida albicans. The Candida albicans suspensions were then each diluted to achieve an initial inoculum with an Abs600 of 0.010.
Test compositions of unmodified amphotericin B in DMSO and orally dissolvable films of amphotericin B in aqueous media were added, followed by serial dilution of the RPMI media.
A growth inhibition assay was performed in triplicate and results determined using a resazurin colorimetric assay. All plated compositions were incubated at 30° C. for 48±2 hours. […] After incubation, 20 μL of resazurin dye (0.02% w/v) was added to each well and observed for a change in dye color to determine cell viability.

[3] = system: Candida albicans; assay: Resazurin microtiter assay (REMA) MIC; type: cell-based
Protocol: as §1, with “This” for “Tis”, “organisms” for “organism”, “were Candida tropicalis and” for “was”
(§2) A resazurin microtiter assay (REMA) assay was performed using orally dissolvable films prepared according to the process described in Example 3 and unmodified amphotericin B. Samples were run in triplicate as Sets 1-3 for each test material against each pathogen.
(§3) Images of the microtiter plates used to conduct this experiment are shown in FIG. 5, illustrating the results of MIC assay. […] Results of the orally dissolvable film (“ODF (A)”) and unmodified amphotericin B (“AmpB (B)”) against Candida tropicalis and Candida albicans are shown in the microtiter plates on the left and right, respectively. The first row of each microtiter plate (top) contains a positive control (“P.C.”). The second row of each microtiter plate contains a negative control (“N.C.”).

[4] = system: Candida tropicalis; assay: Resazurin microtiter assay (REMA) MIC; type: cell-based
Protocol: as §1, with “This” for “Tis”, “organisms” for “organism”, “were Candida tropicalis and” for “was”
as §2, §3

[5] = limited solubility and permeability; cited from earlier work
[6] = read-out: Minimum Inhibitory Concentration, Avg.
[7] = read-out: Minimum Inhibitory Concentration, Set 1
[8] = read-out: Minimum Inhibitory Concentration, Set 2
[9] = read-out: Minimum Inhibitory Concentration, Set 3

C[C@@H]1[C@H](O)[C@@H](C)/C=C/C=C/C=C/C=C/C=C/C=C/C=C/[C@H](O[C@@H]2O[C@H](C)[C@@H](O)[C@H](N)[C@@H]2O)C[C@@H]2O[C@](O)(C[C@@H](O)C[C@@H](O)[C@H](O)CC[C@@H](O)C[C@@H](O)CC(=O)O[C@H]1C)C[C@H](O)[C@H]2C(=O)O [AmpB, (1R,3S,5R,6R,9R,11R,15S,16R,17R,18S,19E,21E, 23E, 25E, 27E,29E,31E,33R,35S,36R,37S)-33-[(2R,3S,4S,5S,6R)-4-amino-3,5-di hydroxy-6-methyloxan-2-yl] oxy-1,3,5,6,9,11,17,37-octahydroxy-15,16,18-trimethyl-13-oxo-14,39-dioxabicyclo[33.3.1]nonatriaconta-19,21,23, 25, 27,29,31-heptaene-36-carboxylic acid]
solubility at 6 h [1]: 630 µg/mL (≈ 682 µM)
MIC [2]: 1.25 µM (≈ 1.16 µg/mL)
MIC ([3]; read-out: Average MIC): 1.1 µg/mL (≈ 1.19 µM)
MIC [3, 6]: 1.1 µg/mL (≈ 1.19 µM)
MIC [3, 7]: 1.1 µg/mL (≈ 1.19 µM)
MIC [3, 8]: 1.1 µg/mL (≈ 1.19 µM)
MIC [3, 9]: 1.1 µg/mL (≈ 1.19 µM)
MIC ([4]; read-out: Average MIC): 1.1 µg/mL (≈ 1.19 µM)
MIC [4, 6]: 1.1 µg/mL (≈ 1.19 µM)
MIC [4, 7]: 1.1 µg/mL (≈ 1.19 µM)
MIC [4, 8]: 1.1 µg/mL (≈ 1.19 µM)
MIC [4, 9]: 1.1 µg/mL (≈ 1.19 µM)
Biopharmaceutics Classification System (BCS) class [5]: class IV
